Source: patent publication US20050101623A1 (Pharmacia Corporation, priority 2003, published 2005)
Values joined by “and” are separate entries in the source; they are usually repeats but may differ in a detail not shown here. Identical values can stand only once. Counter-ions that a name gives are not always drawn. Like-named read-outs stand apart in the source and are kept apart here.

Assays:
TNFα release, U937 cells = experiment: U937 Cell TNFα Release Assay (LPS, ELISA); format: cell-based, human; settings: additional values are replicate IC50 experiments
Method: U937 Cell TNFα Release Assay
Differentiation of U937 to monocytic/macrophage-like cells is induced by the addition of phorbol12-myristate 13-acetate (Sigma) at final concentration of 20 ng/ml to a culture of U937 cells at ˜0.5 million cells/ml and incubated for 24 hrs. The cells are centrifuged, washed with PBS and resuspended in fresh media without PMA and incubated for 24 hrs. Cells adherent to the culture flask are harvested by scraping, centrifugation, and resuspended in fresh media to 2 million cells/ml, and 0.2 ml is aliquoted to each of 96 wells in flat-bottom plate. Cells are then incubated for an additional 24 hrs to allow for recovery. The media is removed from the cells, and 0.1 ml of fresh media is added per well. 0.05 ml of serially diluted compound or control vehicle (Media with DMSO) is added to the cells. […] Cells are incubated at 37° C. for 4 hrs. After 4 hrs incubation, supernatants are harvest and assayed by ELISA for the presence of TNFα.
Coating solution was aspirated the following day and wells were blocked with 1 mg/ml gelatin in PBS (plus 1× thimerasol) for 2 days at 4° C. Prior to using, wells were washed 3× with wash buffer (PBS with 0.05% Tween). Cultured media samples were diluted in EIA buffer (5 mg/ml bovine γ-globulin, 1 mg/ml gelatin, 1 ml/l Tween-20, 1 mg/ml thimerasol in PBS), added to wells (0.1 ml/well) in triplicate and allowed to incubate for 1.5 hr at 37° C. in a humidified chamber. […] TNF levels were quantitated from a recombinant human TNFα (R&D Systems #210-TA-010) standard curve using a quadratic parameter fit generated by SoftMaxPRO software. ELISA sensitivity was approximately 30 pg TNF/ml. IC50 values for compounds were generated using BioAssay Solver.

adjuvant arthritis = settings: rat; cited from earlier work
[1] = test system: collagen-induced arthritis; settings: mouse; cited from earlier work
MK-2 = settings: cited from earlier work
endotoxin-induced shock = settings: murine model of endotoxin-induced shock; cited from earlier work
[2] = target: Recombinant MAPKAPK2 (MK-2) (Homo sapiens, UniProt P49137); experiment: Determination of MK-2 IC50 (phosphorylation of HSP-peptide, anion exchange resin capture assay); format: biochemical
Chain of Recombinant MAPKAPK2 (MK-2) (P49137 whole entry, species assumed): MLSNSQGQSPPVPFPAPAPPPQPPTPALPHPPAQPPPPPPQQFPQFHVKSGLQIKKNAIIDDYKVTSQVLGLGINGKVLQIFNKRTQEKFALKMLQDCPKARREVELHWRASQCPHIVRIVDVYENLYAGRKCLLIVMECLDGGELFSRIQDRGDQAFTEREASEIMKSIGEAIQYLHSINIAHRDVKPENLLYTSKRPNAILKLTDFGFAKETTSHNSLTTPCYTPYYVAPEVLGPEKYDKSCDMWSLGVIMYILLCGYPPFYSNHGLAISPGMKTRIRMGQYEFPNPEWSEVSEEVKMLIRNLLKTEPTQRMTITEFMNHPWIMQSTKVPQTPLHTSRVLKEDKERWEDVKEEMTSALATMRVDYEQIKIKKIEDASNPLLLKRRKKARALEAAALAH

[3] = Homo sapiens, U-937, 4 h, LPS 100 ng/ml, 4 hrs, differentiated U937 cells, read-out: TNF Release Assay Avg. IC50
[4] = MK-2 Avg. IC50, additional values are replicate IC50 experiments
[5] = Homo sapiens, U-937, 4 h, read-out: TNF Release Assay Avg. IC50, LPS 100 ng/ml, 4 hrs, differentiated U937 cells
[6] = additional values are replicate IC50 experiments, read-out: MK-2 Avg. IC50

COCCNC(=O)C1c2[nH]c3ccc(OC)cc3c2C2CCN1C2 (centres unmarked) [compound 49, 7-methoxy-N-(2-methoxyethyl)-3,4,5,10-tetrahydro-1H-2,5-methanoazepino[3,4-b]indole-1-carboxamide]
IC50 (TNFα release, U937 cells; [3]): > 100 µM

C[S+]([O-])c1ccc(-c2nc(-c3ccncc3)c(-c3ccc(F)cc3)[nH]2)cc1 (centres unmarked) [SB203580]
development of adjuvant arthritis (adjuvant arthritis): inhibit the development
development of collagen-induced arthritis [1]: inhibit the development
inhibition of activation of MK-2 (MK-2): inhibit activation
mortality (endotoxin-induced shock): reduce mortality

CNC(=O)C1c2[nH]c3ccc(OC)cc3c2C2CCN1C2 (centres unmarked) [compound 44, 7-methoxy-N-methyl-3,4,5,10-tetrahydro-1H-2,5-methanoazepino[3,4-b]indole-1-carboxamide]
IC50 (TNFα release, U937 cells; [3]): > 100 µM

COCCOC(=O)C1c2[nH]c3ccc(O)cc3c2C2CCN1C2 (centres unmarked) [trifluoroacetate]
IC50 [2, 4]: 6.88 µM

COc1ccc2[nH]c3c(c2c1)C1CCN(C1)C3C(=O)OCCSC (centres unmarked)
IC50 [2, 4]: 4.4 µM

COc1ccc2[nH]c3c(c2c1)C1CCN(C1)C3C(=O)OC(C)(C)C (centres unmarked) [compound 41, tert-butyl 7-methoxy-3,4,5,10-tetrahydro-1H-2,5-methanoazepino[3,4-b]indole-1-carboxylate]
IC50 (TNFα release, U937 cells; [5]): > 100 µM
IC50 [2, 6]: 112 µM

O=C(OCc1ccccc1)C1c2[nH]c3ccc(OCc4ccccc4)cc3c2C2CCN1C2 (centres unmarked) [compound 47, benzyl 7-(benzyloxy)-3,4,5,10-tetrahydro-1H-2,5-methanoazepino[3,4-b]indole-1-carboxylate trifluoroacetate]
IC50 (TNFα release, U937 cells; [3]): 76.7 µM
IC50 [2, 6]: > 200 µM

COc1ccc2[nH]c3c(c2c1)C1CCN(C1)C3C(=O)OC1CCCCC1 (centres unmarked) [hydrochloride]
IC50 (TNFα release, U937 cells; read-out: TNF Release Assay Avg. IC50, LPS 100 ng/ml, 4 hrs, differentiated U937 cells, listed as 38, hydrochloride): 59.1 µM

COc1ccc2[nH]c3c(c2c1)C1CCN(C1)C3c1ccc[nH]1 (centres unmarked) [compound 50, 7-methoxy-1-(1H-pyrrol-2-yl)-3,4,5,10-tetrahydro-1H-2,5-methanoazepino[3,4-b]indole trifluoroacetate]
IC50 [2, 6]: > 200 µM

COc1ccc2[nH]c3c(c2c1)C1CCN(C1)C3C(=O)N(C)OC (centres unmarked) [trifluoroacetate]
IC50 [2, 4]: 91 µM and 98.2 µM

COCCOC(=O)C1c2[nH]c3ccc(OC)cc3c2C2CCN1C2 (centres unmarked) [trifluoroacetate]
IC50 [2, 4]: 6.49 µM

CCCCCCOC(=O)C1c2[nH]c3ccc(OC)cc3c2C2CCN1C2 (centres unmarked) [trifluoroacetate]
IC50 [2, 4]: 29.7 µM

COCCOC(=O)C1c2[nH]c3ccc(OC)cc3c2C2CCN1C2 (centres unmarked)
IC50 (TNFα release, U937 cells; read-out: TNF Release Assay Avg. IC50, LPS 100 ng/ml, 4 hrs, differentiated U937 cells, listed as 15): 3.58 µM
IC50 [2, 4]: 4.72 µM and 4.96 µM

COc1ccc2[nH]c3c(c2c1)C1CCN(C1)C3C(=O)NCc1ccccc1 (centres unmarked) [compound 45, N-benzyl-7-methoxy-3,4,5,10-tetrahydro-1H-2,5-methanoazepino[3,4-b]indole-1-carboxamide hydrochloride]
IC50 [2, 4]: > 200 µM

CSc1ccc2[nH]c3c(c2c1)C1CCN(C1)C3C(=O)O (centres unmarked) [No. 4, 7-(methylthio)-3,4,5,10-tetrahydro-1H-2,5-methanoazepino[3,4-b]indole-1-carboxylic acid]
IC50 (TNFα release, U937 cells; LPS 100 ng/ml, 4 hrs, differentiated U937 cells, read-out: TNF Release Assay Avg. IC50): > 100 µM

COc1ccc2[nH]c3c(c2c1)C1CCN(C1)C3C(=O)OCCO (centres unmarked)
IC50 (TNFα release, U937 cells; [5]): > 100 µM
IC50 [2, 4]: 5.64 µM

COc1ccc2[nH]c3c(c2c1)C1CCN(C1)C3C(=O)OCC(C)(C)C (centres unmarked) [hydrochloride]
IC50 [2, 4]: 20.6 µM

COc1ccc2[nH]c3c(c2c1)C1CCN(C1)C3C(=O)OC12CC3CC(CC(C3)C1)C2 (centres unmarked) [compound 42]
IC50 (TNFα release, U937 cells; [5]): 42.4 µM

COc1ccc2[nH]c3c(c2c1)C1CCN(C1)C3C(=O)OC1CCCCC1 (centres unmarked) [trifluoroacetate]
IC50 (TNFα release, U937 cells; read-out: TNF Release Assay Avg. IC50, LPS 100 ng/ml, 4 hrs, differentiated U937 cells, listed as 37, trifluoroacetate): 50.4 µM
IC50 [2, 4]: 45.2 µM

COc1ccc2[nH]c3c(c2c1)C1CCN(C1)C3C(=O)N(C)C (centres unmarked) [compound 46, 7-methoxy-N,N-dimethyl-3,4,5,10-tetrahydro-1H-2,5-methanoazepino[3,4-b]indole-1-carboxamide]
IC50 (TNFα release, U937 cells; [3]): > 100 µM
IC50 [2, 4]: > 200 µM

COc1ccc2[nH]c3c(c2c1)C1CCN(C1)C3C(N)=O (centres unmarked) [compound 48, 7-methoxy-3,4,5,10-tetrahydro-1H-2,5-methanoazepino[3,4-b]indole-1-carboxamide]
IC50 (TNFα release, U937 cells; [3]): > 100 µM
IC50 [2, 4]: > 200 µM

COc1ccc2[nH]c3c(c2c1)C1CCN(C1)C3C(=O)OCC1CCCCC1 (centres unmarked) [No. 15, hydrochloride]
IC50 [2, 6]: 38.5 µM
